In patent publication US20260109721A1, “IONIZABLE CATIONIC LIPIDS INCORPORATING SILICON: SYNTHESIS AND LNP FORMULATION” (priority 2023, published 2026):

Test system: HeLa cells
Assay: Cell viability assessment with resazurin assay (Method A)
Type: cell-based
Conditions: not given
Experimental: The synthesized lipids were tested in term of in vitro transfection efficacy and toxicity on HeLa cells. In order to perform the mentioned biological tests, appropriate LNPs had to be formulated from the synthesized lipids. The formulation technique was different in Method A and B. The particle size, polydispersity index (PDI) and zeta potential of resulting LNPs were determined by means of Dynamic Light Scattering technique (DLS). Prior to biological testing the encapsulation efficiency (EE) of the loaded LNPs was determined by using RiboGreen RNA assay. In case of Method A Luc mRNA while in case of Method B GFP mRNA was transfected into the cells. In parallel with the transfection experiments, toxicity of the investigated LNPs was determined, in case of Method A resazurin assay while in case of Method B MTT assay was used. Additionally, the toxicity of the lipids was investigated on HepG2 cells and IC50 values were determined.
This protocol is used to determine the metabolic activity of cells as a measure for cell viability after exposure to potentially toxic substances. Resazurin is converted in mitochondria by reduction to resorufin, which has a much higher fluorescence at ˜600 nm compared to unconverted resazurin. A lower amount/percentage of conversion is correlated with reduced cellular metabolism and indirectly to cellular death and toxicity. Care must be taken with interpretation of the read-out, as 50% reduction in resazurin conversion may mean 50% reduction of cellular metabolism of 100% alive cells, or 50% of cells dead, and any combination in between.
• 1. Prepare 0.25 mg/ml stock solution resazurin in fresh cell culture medium. Resazurin is auto-reducing over time in solution, especially in medium, and fresh stocks should be prepared every 2-3 days. Stocks should be stored at 4° C. and protected from light. For HeLa cells, DMEM/F12 with 10% FCS is used. • 2. Dilute stock solution 10× in fresh cell culture medium to 0.025 mg/ml->ready for application on cells. For HeLa cells, DMEM/F12 with 10% FCS is used. • 3. Collect 96-well plate and replace cell-culture spent medium with 100 μl per well resazurin solution. Add some resazurin solution for background measurement in wells not containing cells. • 4. Incubate for 50 minutes in incubator at 37° C., 5% CO2, 95% RH. • 5. Transfer resazurin solution to a fresh 96- or 384-well plate. • 6. Measure in plate reader using 540/25 nm (excitation) and 610/40 nm (emission) using standard settings (PTM low/OD-1.0). • 7. Subtract the average background measurement from all samples. Set the average of the negative controls (well receiving OptiMEM only during transfection) to 100% and express all values as percentage of the control activity. Typically, at lower levels of treatment, elevation of metabolic activity is shown, whereas for toxic substances, at toxic concentrations sigmoidal curves can be obtained, with lower activity indicating higher toxicity.

Structure (SMILES) | Cell Viability % (Average metabolic rate over all doses, Resazurin)
CCCCCCCCCCCOC(=O)CCCCCN(CCO)CCCCCCCC(=O)OC(CCCCCCCC)CCCCCCCC [SM-102, reference compound] | 91%

Same assay, conditions: human

Structure (SMILES) | Cell Viability % (Average metabolic rate over all doses, Resazurin)
CCCCC/C=C\C/C=C\CCCCCCCCOC(CCCCCCCCCCCCCCC)O[Si](C)(C)OCCCCCCN(CCO)CCO (stereo not shown) [Example 43, (23Z,26Z)-3-(2-hydroxyethyl)-11,11-dimethyl-13-pentadecyl-10,12,14-trioxa-3-aza-11-siladotriaconta-23,26-dien-1-ol] | 98%
CCCCCCCC/C=C\CCCCCCCCOC(=O)C(C)(C)CC(OCCCCCCCC/C=C\CCCCCCCC)O[Si](C)(C)OCCCCCCN1CCCC1CO (stereo not shown) [Example 90, (Z)-octadec-9-en-1-yl 4-((((6-(2-(hydroxymethyl)pyrrolidin-1-yl)hexyl)oxy)dimethylsilyl)oxy)-2,2-dimethyl-4-(((Z)-octadec-9-en-1-yl)oxy)butanoate] | 106%
CCCCC/C=C\C/C=C\CCCCCCCCOC(CCCCCCC/C=C\C/C=C\CCCCC)O[Si](C)(C)OCCCCCCN(C)CC(O)CO (stereo not shown) [Example 59, (24Z,27Z)-14-((8Z,11Z)-heptadeca-8,11-dien-1-yl)-4,12,12-trimethyl-11,13,15-trioxa-4-aza-12-silatritriaconta-24,27-diene-1,2-diol] | 90%
CCCCC/C=C\C/C=C\CCCCCCCCOC(CCCCCCC/C=C\C/C=C\CCCCC)O[Si](C)(C)OCCCCCCN(C)[C@H](CO)Cc1ccccc1 (stereo partly drawn) [Example 77, (2S,23Z,26Z)-2-benzyl-13-((8Z,11Z)-heptadeca-8,11-dien-1-yl)-3,11,11-trimethyl-10,12,14-trioxa-3-aza-11-siladotriaconta-23,26-dien-1-ol] | 112%
CCCCC/C=C\C/C=C\CCCCCCCCO[Si](C)(C)OC(CCCCCCC/C=C\CCCCCCCC)OCCCN(C)C (stereo not shown) [Example 81, (17Z,20Z)-5-((Z)-heptadec-8-en-1-yl)-N,N,7,7-tetramethyl-4,6,8-trioxa-7-silahexacosa-17,20-dien-1-amine] | 100%
CCCCCCCC/C=C\CCCCCCCCOC(=O)C(C)(C)CC(OCCCCCCCC/C=C\CCCCCCCC)O[Si](C)(C)OCCCCCCN(CCCO)CCCO (stereo not shown) [Example 88, (Z)-octadec-9-en-1-yl 1-hydroxy-4-(3-hydroxypropyl)-12,12,16,16-tetramethyl-14-(((Z)-octadec-9-en-1-yl)oxy)-11,13-dioxa-4-aza-12-silaheptadecan-17-oate] | 91%
CCCCC/C=C\C/C=C\CCCCCCCCOC(CCCCCCC/C=C\C/C=C\CCCCC)O[Si](C)(C)OCCCCCCN1CCCCC1CO (stereo not shown) [Example 64, (1-((20Z,23Z)-10-((8Z,11Z)-heptadeca-8,11-dien-1-yl)-8,8-dimethyl-7,9,11-trioxa-8-silanonacosa-20,23-dien-1-yl)piperidin-2-yl)methanol] | 100%
CCCCCCCC/C=C\CCCCCCCC(OCC(CCCCCCCC)SCCCCCCCCCC)O[Si](C)(C)OCCCCCCN(CCO)CCO (stereo not shown) [Example 73, (Z)-13-(heptadec-8-en-1-yl)-3-(2-hydroxyethyl)-11,11-dimethyl-16-octyl-10,12,14-trioxa-17-thia-3-aza-11-silaheptacosan-1-ol] | 107%
CCCCCCCC/C=C\CCCCCCCCOC(CCCCCCC/C=C\CCCCCCCC)O[Si](C)(C)OCCCCCCN(CCO)CCO (stereo not shown) [Example 47, (Z)-13-((Z)-heptadec-8-en-1-yl)-3-(2-hydroxyethyl)-11,11-dimethyl-10,12,14-trioxa-3-aza-11-siladotriacont-23-en-1-ol] | 89%
CCCCCCCC/C=C\CCCCCCCCOC(=O)C(C)(C)CC(OCCCCCCCC/C=C\CCCCCCCC)O[Si](C)(C)OCCCCCCN(C)CCO (stereo not shown) [Example 93, (Z)-octadec-9-en-1-yl 1-hydroxy-3,11,11,15,15-pentamethyl-13-(((Z)-octadec-9-en-1-yl)oxy)-10,12-dioxa-3-aza-11-silahexadecan-16-oate] | 106%
CCCCCCCC/C=C\CCCCCCCCOC(=O)C(C)(C)CCC(OCCCCCCCC/C=C\CCCCCCCC)O[Si](C)(C)OCCCCCCN(CCO)CCO (stereo not shown) [Example 94, (Z)-octadec-9-en-1-yl 1-hydroxy-3-(2-hydroxyethyl)-11,11,16,16-tetramethyl-13-(((Z)-octadec-9-en-1-yl)oxy)-10,12-dioxa-3-aza-11-silaheptadecan-17-oate] | 101%
CCCCC/C=C\C/C=C\CCCCCCCCOC(CCCCCCC/C=C\C/C=C\CCCCC)O[Si](C)(C)OCCCCCCN1CCCCC1 (stereo not shown) [Example 57, 1-((20Z,23Z)-10-((8Z,11Z)-heptadeca-8,11-dien-1-yl)-8,8-dimethyl-7,9,11-trioxa-8-silanonacosa-20,23-dien-1-yl)piperidine] | 99%
CCCCC/C=C\C/C=C\CCCCCCCCOC(CCCCCCC/C=C\C/C=C\CCCCC)O[Si](C)(C)OCCCCCCN(CCCCO)CCCCO (stereo not shown) [Example 62, (25Z,28Z)-15-((8Z,11Z)-heptadeca-8,11-dien-1-yl)-5-(4-hydroxybutyl)-13,13-dimethyl-12,14,16-trioxa-5-aza-13-silatetratriaconta-25,28-dien-1-ol] | 89%
CCCCC/C=C\C/C=C\CCCCCCCCO[Si](C)(C)OC(CCCCCCC/C=C\C/C=C\CCCCC)OCCCCCCN(CCO)CCO (stereo not shown) [Example 40, (23Z,26Z)-11-((8Z,11Z)-heptadeca-8,11-dien-1-yl)-3-(2-hydroxyethyl)-13,13-dimethyl-10,12,14-trioxa-3-aza-13-siladotriaconta-23,26-dien-1-ol] | 100%
CCCCCCCC/C=C\CCCCCCCC(OCCCCCCCCCCCCCCC(C)C)O[Si](C)(C)OCCCCCCN(CCO)CCO (stereo not shown) [Example 76, (Z)-13-(heptadec-8-en-1-yl)-3-(2-hydroxyethyl)-11,11,29-trimethyl-10,12,14-trioxa-3-aza-11-silatriacontan-1-ol] | 110%
CCCCCCCC/C=C\CCCCCCCCOC(CCCCCCC/C=C\CCCCCCCC)O[Si](C)(C)OCCCCCCN(C)[C@H](CO)Cc1ccccc1 (stereo partly drawn) [Example 78, (2S,Z)-2-benzyl-13-((Z)-heptadec-8-en-1-yl)-3,11,11-trimethyl-10,12,14-trioxa-3-aza-11-siladotriacont-23-en-1-ol] | 121%
CCCCCCCC/C=C\CCCCCCCCOC(=O)C(C)(C)CC(OCCCCCCCC/C=C\CCCCCCCC)O[Si](C)(C)OCCCCCCN(CCCCO)CCCCO (stereo not shown) [Example 86, (Z)-octadec-9-en-1-yl 18-hydroxy-14-(4-hydroxybutyl)-2,2,6,6-tetramethyl-4-(((Z)-octadec-9-en-1-yl)oxy)-5,7-dioxa-14-aza-6-silaoctadecanoate] | 96%
CCCCC/C=C\C/C=C\CCCCCCCC(OCCCCCCCC/C=C\CCCCCCCC)O[Si](C)(C)OCCCCCCN(CCO)CCO (stereo not shown) [Example 45, (Z)-13-((8Z,11Z)-heptadeca-8,11-dien-1-yl)-3-(2-hydroxyethyl)-11,11-dimethyl-10,12,14-trioxa-3-aza-11-siladotriacont-23-en-1-ol] | 96%
